Measurements taken from ChEMBL document CHEMBL1201862, “PubChem BioAssay data set” (2004).
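Step 1: Grow cells in 96-well plates. Step 2: Expose to compound for 48 hours at 5 concentrations. Step 3: Interpolate endpoints linearly; if unreached, use highest concentration. Here, GI50 denotes the concentration required for 50% inhibition of growth.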 Calls of active or inactive are those of the source. Rule as the data show it: active = GI50 up to about 1.1 µM and inactive = higher.

Assays:
Test in all cases: inhibition of tumour cell growth, NCI panel, 48 h
SN12C = system: SN12C
OVCAR-8 = system: OVCAR-8
SK-MEL-28 = system: SK-MEL-28
Malme-3M = system: Malme-3M
OVCAR-5 = system: OVCAR-5
SNB-19 = system: SNB-19
OVCAR-3 = system: OVCAR-3
SR = system: SR
HCT-116 = system: HCT-116
LOX IMVI = system: LOX IMVI
TK-10 = system: TK-10
ACHN = system: ACHN
DMS-114 = system: DMS-114
HL-60 = system: HL-60
M14 = system: M14
SK-OV-3 = system: SK-OV-3
SNB-75 = system: SNB-75

Measured: GI50

COc1ccc(C2=NN(c3ccccc3)C[N+](c3ccc(OC)cc3)=N2)cc1
inactive: SN12C 54.1 µM | OVCAR-8 85.7 µM | SK-MEL-28 26.9 µM | Malme-3M 21.2 µM | OVCAR-5 25 µM | SNB-19 28.4 µM | OVCAR-3 22 µM | SR 34 µM | HCT-116 33.7 µM | LOX IMVI 17.6 µM | TK-10 42.4 µM | ACHN 30.3 µM | DMS-114 24.2 µM | HL-60 24 µM

CN1N=C2c3ccccc3CC[C@H]2C1c1ccccc1 (stereo partly drawn)
inactive: SN12C 42.1 µM | OVCAR-8 41.1 µM | SK-MEL-28 > 100 µM | Malme-3M 25.5 µM | OVCAR-5 > 100 µM | M14 56.5 µM | SNB-19 69.2 µM | OVCAR-3 41.8 µM | SR > 100 µM | HCT-116 18 µM | LOX IMVI 47.1 µM | SK-OV-3 2.56 µM | TK-10 > 100 µM | ACHN 44.3 µM | DMS-114 22.5 µM | HL-60 29.6 µM

COC(=O)C(Cc1nc2ccc(Cl)cc2nc1O)/C(=N/NC(N)=O)C(=O)Nc1ccc(Cl)cc1 (stereo not drawn)
inactive: SN12C > 100 µM | OVCAR-8 > 100 µM | SK-MEL-28 > 100 µM | Malme-3M > 100 µM | SNB-75 > 100 µM | OVCAR-5 > 100 µM | M14 > 100 µM | SNB-19 > 100 µM | OVCAR-3 > 100 µM | SR > 100 µM | HCT-116 > 100 µM | LOX IMVI > 100 µM | SK-OV-3 > 100 µM | TK-10 > 100 µM | ACHN > 100 µM | DMS-114 > 100 µM | HL-60 > 100 µM

COc1ccccc1/C=C1\C(=O)N(C(=O)Cc2ccccc2)N=C1C
inactive: SN12C > 100 µM | OVCAR-8 > 100 µM | SK-MEL-28 > 100 µM | Malme-3M > 100 µM | SNB-75 > 100 µM | OVCAR-5 > 100 µM | M14 > 100 µM | SNB-19 > 100 µM | OVCAR-3 > 100 µM | SR > 100 µM | HCT-116 > 100 µM | LOX IMVI > 100 µM | TK-10 > 100 µM | ACHN > 100 µM | DMS-114 > 100 µM | HL-60 > 100 µM

CC(C)(CN1CCCCC1)C(=O)/C=C/c1ccc(Cl)c(Cl)c1
inactive: SN12C 1.56 µM | OVCAR-8 > 100 µM | SK-MEL-28 1.86 µM | Malme-3M 1.83 µM | SNB-75 1.48 µM | OVCAR-5 1.71 µM | M14 1.7 µM | SNB-19 3.15 µM | OVCAR-3 1.59 µM | SR 1.49 µM | HCT-116 1.65 µM | LOX IMVI 1.37 µM | SK-OV-3 2.34 µM | TK-10 1.48 µM | ACHN 1.55 µM | DMS-114 1.56 µM | HL-60 1.53 µM

CSc1nc2c(nc(C)c(=O)n2C2OCC(OC(C)=O)C(OC(C)=O)C2OC(C)=O)c(=O)[nH]1 (stereo not drawn)
inactive: SN12C > 100 µM | OVCAR-8 > 100 µM | SK-MEL-28 > 100 µM | Malme-3M > 100 µM | SNB-75 > 100 µM | OVCAR-5 > 100 µM | M14 > 100 µM | SNB-19 > 100 µM | OVCAR-3 > 100 µM | SR > 100 µM | HCT-116 > 100 µM | LOX IMVI > 100 µM | SK-OV-3 > 100 µM | TK-10 > 100 µM | ACHN > 100 µM | DMS-114 > 100 µM | HL-60 > 100 µM

Cc1cccc(C(C)C)c1N1C(=O)C(=O)C(c2nc3ccccc3o2)C(=O)C1=O
inactive: SN12C > 100 µM | OVCAR-8 > 100 µM | SK-MEL-28 > 100 µM | Malme-3M > 100 µM | SNB-75 26.9 µM | OVCAR-5 > 100 µM | M14 > 100 µM | SNB-19 > 100 µM | OVCAR-3 32.1 µM | SR 70 µM | HCT-116 53.7 µM | LOX IMVI 41.7 µM | SK-OV-3 > 100 µM | TK-10 > 100 µM | ACHN > 100 µM | DMS-114 24.7 µM | HL-60 30.3 µM

C/C=C(\NC(=O)C(CCCCN)NC(=O)C(C)NC(=O)C1CSC(C)C(NC(=O)C2CSCC(NC(=O)C(C)NC(=O)C(N)C(C)CC)C(=O)NC(CCCCN)C(=O)NC(Cc3ccccc3)C(=O)NC(CC(C)C)C(=O)N2)C(=O)N2CCCC2C(=O)NCC(=O)N1)C(=O)NCC(=O)NC1CSCC2NC(=O)C(Cc3ccc(O)cc3)NC(=O)C(CSC=CNC2=O)NC(=O)C(CC(N)=O)NC(=O)C(Cc2ccccc2)NC1=O (stereo not drawn)
inactive: SN12C > 100 µM | OVCAR-8 > 100 µM | SK-MEL-28 78.3 µM | SNB-75 20.3 µM | OVCAR-5 > 100 µM | M14 > 100 µM | SNB-19 > 100 µM | OVCAR-3 > 100 µM | SR > 100 µM | HCT-116 > 100 µM | LOX IMVI > 100 µM | TK-10 > 100 µM | ACHN 65 µM | DMS-114 > 100 µM | HL-60 > 100 µM

CCOC(=O)[C@H]1Nc2ccccc2C2c3ccccc3CC21 (stereo partly drawn)
inactive: SN12C 29.4 µM | OVCAR-8 48.5 µM | SK-MEL-28 34.2 µM | Malme-3M > 100 µM | SNB-75 39.5 µM | OVCAR-5 31.7 µM | M14 > 100 µM | SNB-19 > 100 µM | OVCAR-3 29.6 µM | SR 27.4 µM | HCT-116 41.5 µM | LOX IMVI > 100 µM | TK-10 > 100 µM | ACHN > 100 µM | DMS-114 88.1 µM

O=C1OC(CC(=O)c2ccc(Cl)cc2)C(Cl)=C1Cl (stereo not drawn)
inactive: SN12C > 100 µM | OVCAR-8 > 100 µM | SK-MEL-28 > 100 µM | Malme-3M > 100 µM | SNB-75 > 100 µM | OVCAR-5 > 100 µM | M14 > 100 µM | SNB-19 > 100 µM | OVCAR-3 > 100 µM | SR 48.3 µM | HCT-116 > 100 µM | SK-OV-3 > 100 µM | TK-10 > 100 µM | ACHN > 100 µM | DMS-114 > 100 µM | HL-60 26 µM

Cc1nc2ccncc2[nH]1
inactive: SN12C > 100 µM | OVCAR-8 > 100 µM | SK-MEL-28 > 100 µM | Malme-3M > 100 µM | SNB-75 24.8 µM | OVCAR-5 > 100 µM | M14 > 100 µM | SNB-19 > 100 µM | OVCAR-3 > 100 µM | SR > 100 µM | HCT-116 > 100 µM | LOX IMVI > 100 µM | TK-10 > 100 µM | ACHN > 100 µM | DMS-114 > 100 µM | HL-60 > 100 µM

CN(C)[C@@H]1C(O)=C(C(N)=O)C(=O)[C@@]2(O)C(O)=C3C(=O)c4c(O)cccc4C[C@H]3C[C@@H]12
inactive: SN12C 3.44 µM | OVCAR-8 2.89 µM | SK-MEL-28 1.77 µM | Malme-3M 1.51 µM | SNB-75 1.61 µM | OVCAR-5 2.09 µM | M14 1.99 µM | SNB-19 1.97 µM | OVCAR-3 1.75 µM | SR 2.56 µM | HCT-116 1.77 µM | LOX IMVI 1.91 µM | SK-OV-3 1.9 µM | TK-10 2.52 µM | ACHN 3.74 µM | DMS-114 2.52 µM | HL-60 2 µM

O=C(Cc1ccccc1)NN1C(=O)C(Cl)C1c1ccc([N+](=O)[O-])cc1 (stereo not drawn)
inactive: SN12C 96.4 µM | OVCAR-8 > 100 µM | SK-MEL-28 > 100 µM | Malme-3M > 100 µM | SNB-75 93.8 µM | OVCAR-5 > 100 µM | M14 > 100 µM | SNB-19 > 100 µM | OVCAR-3 > 100 µM | SR 32.7 µM | HCT-116 > 100 µM | LOX IMVI 87.5 µM | SK-OV-3 > 100 µM | TK-10 > 100 µM | ACHN > 100 µM | DMS-114 28.6 µM | HL-60 70.5 µM

COC(=O)CCC(NC(=S)N/N=C/c1ccccn1)C(=O)OC (stereo not drawn)
inactive: SN12C > 100 µM | OVCAR-8 > 100 µM | SK-MEL-28 > 100 µM | Malme-3M > 100 µM | SNB-75 > 100 µM | OVCAR-5 63.1 µM | M14 > 100 µM | SNB-19 > 100 µM | OVCAR-3 > 100 µM | SR 59.2 µM | HCT-116 > 100 µM | LOX IMVI > 100 µM | SK-OV-3 > 100 µM | TK-10 > 100 µM | ACHN > 100 µM | DMS-114 > 100 µM | HL-60 84.3 µM

COC(=O)c1ccc(CS(=O)(=O)c2ccccc2)cc1
inactive: SN12C > 100 µM | OVCAR-8 > 100 µM | SK-MEL-28 > 100 µM | Malme-3M > 100 µM | SNB-75 48.3 µM | OVCAR-5 > 100 µM | M14 49.8 µM | SNB-19 > 100 µM | OVCAR-3 > 100 µM | SR 45 µM | HCT-116 60.3 µM | LOX IMVI 74.3 µM | SK-OV-3 > 100 µM | TK-10 > 100 µM | ACHN > 100 µM | DMS-114 64.3 µM | HL-60 76.6 µM

Nc1nnc(N)n1N
inactive: SK-MEL-28 > 100 µM | Malme-3M > 100 µM | SNB-75 > 100 µM | OVCAR-5 > 100 µM | M14 > 100 µM | SNB-19 > 100 µM | SR > 100 µM | HCT-116 > 100 µM | LOX IMVI > 100 µM | SK-OV-3 > 100 µM | TK-10 > 100 µM | ACHN > 100 µM | DMS-114 > 100 µM | HL-60 > 100 µM
